# Assay results: PMC11237035, “Glutathione determines chronic myeloid leukemia vulnerability to an inhibitor of CMPK and TMPK” (Communications Biology, 2024)
# Several values for one entry are separate records, joined by “and”; a condition that tells them apart may be missing. Equal values may be shown once. Read-outs that look alike come from different tables or passages of the source.
# Columns and labels:
# Assay type in all cases: cell-based, mouse
# T315I-Bcr-Abl-32D cells [1] = assay: dTTP/dCTP pools by RCA-qPCR in T315I-Bcr-Abl-32D cells; settings: T315I-Bcr-Abl-32D cells, combinatory treatment of UK-5099 with JMF4073
# Protocol: The methanol extracts were centrifuged
# For chloroform extraction, same volume of
# attomol of the annealed template-primer.
# The RCA products were determined by
# The thiophenol compound 3 was
# (98.5%) after silica gel chromatography.
# untransformed 32D cells = assay: CCK-8 cell viability assay, untransformed 32D cells; settings: for viability (vehicle, 0 = 100): 32D cells, 72 h, no BSO; for viability (vehicle, 0 = 100) / viability (0 = 100): single replicates; for viability (0 = 100): Untransformed
# Protocol: After 72 h, viability assays were performed.
# 3 independent experiments. Asterisks denote ***p<0.001 from non-paired two-tailed
# WT-Bcr-Abl-32D cells = assay: CCK-8 cell viability assay, WT-Bcr-Abl-32D cells; settings: for viability (0 = 100): single replicates
# T315I-Bcr-Abl-32D cells [2] = assay: CCK-8 cell viability assay, T315I-Bcr-Abl-32D cells; settings: for cell viability (% of NT, 0 JMF4073), Figure 5e / cell viability (% of 0 JMF4073), Figure 5b: T315I; for cell viability (% of NT, 0 JMF4073), Figure 5e: NT (no BSO)
smiles,measurement,setting,value
"CC(C)(C)OC(=O)N1CCN(C(=O)Cn2sc3ccc(F)cc3c2=O)CC1 [JMF4073, Tert-butyl 4-(2-(5-fluoro-3-oxobenzo[d]isothiazol-2(3H)-yl)acetyl) piperazine-1-carboxylate]",dCTP pool,T315I-Bcr-Abl-32D cells [1],exhaustion
same,dTTP pool,T315I-Bcr-Abl-32D cells [1],exhaustion
same,"viability (vehicle, 0 = 100)",untransformed 32D cells; JMF4073 0.5 mM (so in the source),108 and 88
same,"viability (vehicle, 0 = 100)",untransformed 32D cells; JMF4073 1.25 mM (so in the source),86 and 80
same,"viability (vehicle, 0 = 100)",untransformed 32D cells; JMF4073 2.5 mM (so in the source),70 and 71.46
same,"growth of cells, BSO in combination with JMF4073",untransformed 32D cells; 32D myeloid progenitor cells,severely suppressed the growth
same,GI50,"untransformed 32D cells; Mus musculus, untransformed 32D cells, viability",4.2 µM
same,viability (0 = 100),untransformed 32D cells; JMF4073 1 mM (so in the source),80.74 and 95.63 and 110
same,viability (0 = 100),untransformed 32D cells; JMF4073 2 mM (so in the source),67.24 and 95.4 and 71
same,viability (0 = 100),untransformed 32D cells; JMF4073 5 mM (so in the source),26.41 and 55.58 and 32
same,GI50,"WT-Bcr-Abl-32D cells; Mus musculus, WT-Bcr-Abl-32D cells, viability",0.67 µM
same,viability (0 = 100),"WT-Bcr-Abl-32D cells; WT-Bcr-Abl, JMF4073 1 mM (so in the source)",5 and 32.8138 and 24
same,viability (0 = 100),"WT-Bcr-Abl-32D cells; WT-Bcr-Abl, JMF4073 2 mM (so in the source)",1 and 9.014 and 19
same,viability (0 = 100),"WT-Bcr-Abl-32D cells; WT-Bcr-Abl, JMF4073 5 mM (so in the source)",-1.08 and 0.13 and 0
same,"cell viability (% of NT vehicle), Figure 5h","WT-Bcr-Abl-32D cells; WT-Bcr-Abl, NT (no NAC), JMF4073, single replicates",28.4633 and 15.0339 and 2.584
same,JMF4073 sensitivity after NAC treatment,"WT-Bcr-Abl-32D cells; WT-Bcr-Abl-32D cells, NAC 1 mM + JMF4073 0.5 μM, 72 h",insensitive to JMF4073
same,viability at 1000 µM,"T315I-Bcr-Abl-32D cells [2]; Mus musculus, T315I-Bcr-Abl, JMF4073 1 mM (so in the source), single replicates, read-out: viability (0 = 100)",69%
same,viability at 500 µM,"T315I-Bcr-Abl-32D cells [2]; Mus musculus, T315I-Bcr-Abl, NT (no UK-5099), JMF4073 0.5 mM as printed, replicates, read-out: Figure 6c, viability relative to NT (=100)",80.7%
same,viability at 1250 µM,"T315I-Bcr-Abl-32D cells [2]; Mus musculus, T315I-Bcr-Abl, NT (no UK-5099), JMF4073 1.25 mM as printed, replicates, read-out: Figure 6c, viability relative to NT (=100)",43%
same,viability at 500 µM,"T315I-Bcr-Abl-32D cells [2]; Mus musculus, read-out: cell viability (% of 0 JMF4073), Figure 5b, T315I, shLacZ, JMF4073 0.5 mM (so in the source), single replicates",78.6%
same,viability at 2500 µM,"T315I-Bcr-Abl-32D cells [2]; Mus musculus, read-out: cell viability (% of 0 JMF4073), Figure 5b, T315I, shLacZ, JMF4073 2.5 mM (so in the source), single replicates",15.5%
same,viability at 500 µM,"T315I-Bcr-Abl-32D cells [2]; Mus musculus, read-out: cell viability (% of 0 JMF4073), Figure 5b, T315I, shSHMT2, JMF4073 0.5 mM (so in the source), single replicates",71.4%
same,viability at 1250 µM,"T315I-Bcr-Abl-32D cells [2]; Mus musculus, read-out: cell viability (% of 0 JMF4073), Figure 5b, T315I, shSHMT2, JMF4073 1.25 mM (so in the source), single replicates",52.1%
same,viability at 2500 µM,"T315I-Bcr-Abl-32D cells [2]; Mus musculus, read-out: cell viability (% of 0 JMF4073), Figure 5b, T315I, shSHMT2, JMF4073 2.5 mM (so in the source), single replicates",14.5%
same,viability at 500 µM,"T315I-Bcr-Abl-32D cells [2]; Mus musculus, read-out: cell viability (% of NT, 0 JMF4073), Figure 5e, T315I, NT (no BSO), JMF4073 0.5 mM (so in the source), single replicates",88%
same,viability at 1250 µM,"T315I-Bcr-Abl-32D cells [2]; Mus musculus, read-out: cell viability (% of NT, 0 JMF4073), Figure 5e, T315I, NT (no BSO), JMF4073 1.25 mM (so in the source), single replicates",64%
same,GI50,"T315I-Bcr-Abl-32D cells [2]; Mus musculus, T315I-Bcr-Abl-32D cells, viability",1.5 µM
same,"cell viability (% of NT, 0 JMF4073), Figure 5e","T315I-Bcr-Abl-32D cells [2]; JMF4073 0.5 mM (so in the source), single replicates",86.2452 and 88.0302
same,"cell viability (% of NT, 0 JMF4073), Figure 5e","T315I-Bcr-Abl-32D cells [2]; JMF4073 1.25 mM (so in the source), single replicates",67.023 and 70.4858
same,"cell viability (% of NT, 0 JMF4073), Figure 5e","T315I-Bcr-Abl-32D cells [2]; JMF4073 2.5 mM (so in the source), single replicates",17 and 12.279 and 45.0063
same,"cell viability (% of 0 JMF4073), Figure 5b","T315I-Bcr-Abl-32D cells [2]; shLacZ, JMF4073 0.5 mM (so in the source), single replicates",80.777
same,"cell viability (% of 0 JMF4073), Figure 5b","T315I-Bcr-Abl-32D cells [2]; shLacZ, JMF4073 1.25 mM (so in the source), single replicates",68.6184 and 53.2629
same,"cell viability (% of 0 JMF4073), Figure 5b","T315I-Bcr-Abl-32D cells [2]; shLacZ, JMF4073 2.5 mM (so in the source), single replicates",11.7008
same,"cell viability (% of 0 JMF4073), Figure 5b","T315I-Bcr-Abl-32D cells [2]; shSHMT2, JMF4073 0.5 mM (so in the source), single replicates",67.1231
same,"cell viability (% of 0 JMF4073), Figure 5b","T315I-Bcr-Abl-32D cells [2]; shSHMT2, JMF4073 1.25 mM (so in the source), single replicates",37.9395
same,"cell viability (% of 0 JMF4073), Figure 5b","T315I-Bcr-Abl-32D cells [2]; shSHMT2, JMF4073 2.5 mM (so in the source), single replicates",11.3951
same,viability (0 = 100),"T315I-Bcr-Abl-32D cells [2]; T315I-Bcr-Abl, JMF4073 1 mM (so in the source), single replicates",70 and 66.4746
